Reference: US10208066B2, “Imidazopyridazine compounds and their use” (HUTCHISON MEDIPHARMA LIMITED, priority 2014, dated 2019)
pIC50: −log10 of the molar value.

Experiments:
PI3K-δ (p110δ/p85α) = PI3K-δ (p110δ/p85α) (Homo sapiens (Human), UniProt O00329); test: Transcreener KINASE Assay, fluorescent determination of PI3K enzyme activity; assay type: biochemical;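 also: ADP formed by the kinase detected via far-red competitive fluorescence polarization immunoassay after 80 min room-temperature reaction, inhibition relative to 2% DMSO wells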
Experimental: (§1) It is a universal, homogenous, high throughput screening (HTS) technology using a far-red, competitive fluorescence polarization immunoassay based on the detection of ADP to monitor the activity of enzymes that catalyze group transfer reactions. […] The reaction mixture was added into desired wells of a 96-well plate. The plate was sealed and incubated for 80 min at room temperature. • 2) Next, 25 uL ADP detection mix was added into each well. The plate was sealed again and incubated for 60 min at room temperature. Then fluorescence polarization was measured by Tecan Infinite F500 Reader.
(§2) Data was analyzed and IC50 values were generated using the add-in software for Microsoft Excel, Xlfit™ (version 5.3).
(§3) Inhibition rates were calculated as follow: IH %=(ADP amount under 2% DMSO well−ADP amount under test compound well)/ADP amount under 2% DMSO well×100%.

PI3K-γ (p110γ) = PI3K-γ (p110γ) (Homo sapiens (Human), UniProt P48736); test: as above; assay type: biochemical; conditions: for inhibition at 1 µM: read-out: PI3K-γ IH % (inhibition rate);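 as to all read-outs here: ADP produced by p110γ kinase reaction, 80 min at room temperature, detected by far-red fluorescence polarization immunoassay, inhibition relative to 2% DMSO control wells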
PI3K-β = PI3K-β (Homo sapiens, UniProt P42338); test: as above; assay type: biochemical; conditions: for inhibition at 1 µM: read-out: PI3K-β IH % (inhibition rate);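 as to all read-outs here: recombinant PI3K enzyme reaction, 80 min at room temperature, ADP formed detected by far-red competitive fluorescence polarization immunoassay, inhibition relative to ADP in 2% DMSO control wells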
Experimental: as §1, §2, §3

[1] = system: AKT phosphorylation (p-AKT Ser473) in Ramos cells; test: Inhibition of AKT phosphorylation in Ramos cell line (anti-IgM stimulated); assay type: cell-based; conditions: Homo sapiens; Ramos cells, anti-IgM stimulation; read-out: IC50, inhibition of AKT phosphorylation
Experimental: 6×10^4/mL Ramos cells (ATCC, CRL-1596; cells were cultured in RPMI1640 media with 10% FBS) were seeded into a 96-well plate (Beckman Dickinson, No. 356692) at 80 uL/well, 4,800 cells/well. After incubation for 3 hr at 37° C. under 5% CO2, Ramos cells were treated with 10 uL/well various concentrations of test compound (final concentrations of the test compound: 1 uM, 0.3 uM, 0.1 uM, 0.037 uM, 0.012 uM, 0.0041 uM, 0.0014 uM and 0.0005 uM) or 0.3% DMSO for 30 min, and then were stimulated with 10 uL/well 1 ug/ml Anti-IgM (Jackson Immunoresearch, 709-006-073) for 15-20 min. • 1) Cells were fixed with 100 μL of 4% pre-warmed Paraformaldehyde (2% final concentration), and incubated for 45 min at room temperature. • 2) The paraformaldehyde solution was removed. 100 μL of ice-cold methanol was added into each well and the plate was left at 4° C. for 30 min. • 3) The cells were washed for three times with 160 μL PBS. • 4) 40 μL 1:350 dilution of Rabbit anti-p-AKT(Ser^473) antibody (Cell Signaling Technology, 4060L) in antibody dilution buffer (1% BSA, in PBS) were added into each well. The plate was inculpated overnight at 4° C. • 5) The cells were washed for 3 times with 160 uL PBS. • 6) 45 μL of Goat anti-rabbit IgG Alexa488 antibody (Invitrogen, A11034) at a 1:1,000 dilution in antibody dilution buffer (1% BSA, in PBS) were added into each well. The plate was covered with foil to keep out of light and was incubated for 90 min at room temperature. • 7) The cells were washed for 3 times with 160 uL PBS. • 8) 50 μL of 1.5 μM Propidium Iodide (Sigma: P4170) solution was added into each well to determine cell number (1.5 mM Propidium iodide stock was diluted with 1:1,000 in PBS, and the final concentration was 1.5 μM). • 9) The plate was incubated at room temperature for 30 min and then was sealed with a cover-seal. • 10) The plate was loaded into the Acumen Explorer and scan with the appropriate instrument settings.
as §2

[2] = system: PI3Kδ signaling in basophils; test: Inhibition of PI3Kδ signaling in basophils from human whole blood; assay type: cell-based; conditions: human whole blood, anti-human IgE stimulation, CD63; read-out: IC50, inhibition of PI3Kδ signaling in basophils
Experimental: Methods • 1) Heparinized human whole blood was mixed and pipetted into the 96 well v-bottom plate, 100 μL per well. • 2) 10 μL of stimulation buffer (1 mg/mL stock, final concentration of Recombinant human IL-3: 20 ng/mL) was added to the whole blood samples of each well and vortex gently. […] Vortex all the wells once more and incubate for 20 min at 37° C. • 5) Labeling with staining antibody: Degranulation was stopped by incubating the samples on ice for 5 min. 6 μL of staining antibody mixture (anti-CD63-FITC and anti-IgE-PE) was added into each well. Vortex and incubate the wells for 20 min in an ice bath, covered to prevent exposure to light. • 6) The whole blood samples were lysed with 300 uL RBC lysis (pre-warmed to room temperature, 20 to 25° C.). Vortex and incubate the samples for 15 min at room temperature. Spin down cells (5 min, 250×g, 4° C.). The supernatant was aspirated leaving approximately 100 μL in each well. • 7) The blood samples were lysed once more as step 6). • 8) Washing: The samples are washed once with 0.5 mL of washing solution. The plate was centrifuged (5 min, 250×g, 4° C.). The supernatant was aspirated leaving approximately 100 μL in each well. The sample in each well was washed and centrifuged once more as above. • 9) 200 μL of fixing solution (1% papraledehyde in 1% BSA/PBS) was added into each well.
as §2

Chain of PI3K-γ (p110γ) (P48736 whole entry, species assumed): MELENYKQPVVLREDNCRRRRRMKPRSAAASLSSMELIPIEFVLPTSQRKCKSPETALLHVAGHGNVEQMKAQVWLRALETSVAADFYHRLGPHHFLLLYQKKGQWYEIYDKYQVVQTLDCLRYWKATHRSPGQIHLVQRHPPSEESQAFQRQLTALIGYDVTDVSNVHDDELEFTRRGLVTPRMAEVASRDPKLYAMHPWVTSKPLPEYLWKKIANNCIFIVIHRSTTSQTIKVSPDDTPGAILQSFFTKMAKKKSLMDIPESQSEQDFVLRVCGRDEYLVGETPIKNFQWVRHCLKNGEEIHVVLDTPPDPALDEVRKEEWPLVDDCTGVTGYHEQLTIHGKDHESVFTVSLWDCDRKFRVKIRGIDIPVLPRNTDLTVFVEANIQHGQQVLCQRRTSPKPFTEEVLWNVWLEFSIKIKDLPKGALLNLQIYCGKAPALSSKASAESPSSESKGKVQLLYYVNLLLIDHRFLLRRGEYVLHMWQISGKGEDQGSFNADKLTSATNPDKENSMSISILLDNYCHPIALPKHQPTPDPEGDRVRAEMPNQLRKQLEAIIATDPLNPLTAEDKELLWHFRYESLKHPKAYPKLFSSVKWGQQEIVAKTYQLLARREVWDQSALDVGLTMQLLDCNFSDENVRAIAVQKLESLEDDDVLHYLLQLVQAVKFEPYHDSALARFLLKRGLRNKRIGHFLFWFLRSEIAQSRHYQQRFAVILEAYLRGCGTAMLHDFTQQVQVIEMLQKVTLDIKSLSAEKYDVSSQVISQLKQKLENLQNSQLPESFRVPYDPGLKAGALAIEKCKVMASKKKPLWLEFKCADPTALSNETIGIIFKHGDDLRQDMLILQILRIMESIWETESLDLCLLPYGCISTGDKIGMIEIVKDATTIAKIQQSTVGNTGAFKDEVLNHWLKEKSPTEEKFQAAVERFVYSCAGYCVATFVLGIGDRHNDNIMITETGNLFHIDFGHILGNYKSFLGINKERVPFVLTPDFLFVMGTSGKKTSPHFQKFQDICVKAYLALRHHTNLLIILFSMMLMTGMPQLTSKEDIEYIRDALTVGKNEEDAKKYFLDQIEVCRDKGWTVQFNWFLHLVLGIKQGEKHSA
Chain of PI3K-β (P42338 whole entry, looked up): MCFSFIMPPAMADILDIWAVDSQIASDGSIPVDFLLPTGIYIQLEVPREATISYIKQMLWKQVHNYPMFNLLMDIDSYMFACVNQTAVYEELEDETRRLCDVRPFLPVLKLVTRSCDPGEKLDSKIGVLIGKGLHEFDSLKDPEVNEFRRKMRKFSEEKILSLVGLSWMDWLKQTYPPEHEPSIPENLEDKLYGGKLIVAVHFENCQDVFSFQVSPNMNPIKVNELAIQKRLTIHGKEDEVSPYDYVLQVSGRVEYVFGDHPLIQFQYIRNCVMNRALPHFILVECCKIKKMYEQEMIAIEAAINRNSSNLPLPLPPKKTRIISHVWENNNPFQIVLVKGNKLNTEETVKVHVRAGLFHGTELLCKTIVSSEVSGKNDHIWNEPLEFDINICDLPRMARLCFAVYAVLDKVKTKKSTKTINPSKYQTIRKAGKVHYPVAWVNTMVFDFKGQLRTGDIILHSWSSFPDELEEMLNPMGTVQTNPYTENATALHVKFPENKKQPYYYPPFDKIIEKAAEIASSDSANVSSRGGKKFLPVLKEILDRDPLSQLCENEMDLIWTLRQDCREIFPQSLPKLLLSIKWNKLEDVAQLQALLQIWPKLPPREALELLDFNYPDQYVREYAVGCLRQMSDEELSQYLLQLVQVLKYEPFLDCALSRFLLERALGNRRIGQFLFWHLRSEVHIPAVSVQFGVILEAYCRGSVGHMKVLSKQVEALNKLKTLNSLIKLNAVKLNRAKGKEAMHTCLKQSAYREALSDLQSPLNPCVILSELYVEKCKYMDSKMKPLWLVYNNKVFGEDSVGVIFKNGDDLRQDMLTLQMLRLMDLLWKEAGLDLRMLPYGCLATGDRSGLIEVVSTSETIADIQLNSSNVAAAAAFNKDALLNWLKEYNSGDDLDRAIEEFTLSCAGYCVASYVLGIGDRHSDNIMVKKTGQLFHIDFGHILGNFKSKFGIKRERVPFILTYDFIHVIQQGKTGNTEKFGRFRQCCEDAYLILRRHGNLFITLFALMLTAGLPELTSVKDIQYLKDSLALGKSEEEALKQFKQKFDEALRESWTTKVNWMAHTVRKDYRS
Chain of PI3K-δ (p110δ/p85α) (O00329 whole entry, species assumed): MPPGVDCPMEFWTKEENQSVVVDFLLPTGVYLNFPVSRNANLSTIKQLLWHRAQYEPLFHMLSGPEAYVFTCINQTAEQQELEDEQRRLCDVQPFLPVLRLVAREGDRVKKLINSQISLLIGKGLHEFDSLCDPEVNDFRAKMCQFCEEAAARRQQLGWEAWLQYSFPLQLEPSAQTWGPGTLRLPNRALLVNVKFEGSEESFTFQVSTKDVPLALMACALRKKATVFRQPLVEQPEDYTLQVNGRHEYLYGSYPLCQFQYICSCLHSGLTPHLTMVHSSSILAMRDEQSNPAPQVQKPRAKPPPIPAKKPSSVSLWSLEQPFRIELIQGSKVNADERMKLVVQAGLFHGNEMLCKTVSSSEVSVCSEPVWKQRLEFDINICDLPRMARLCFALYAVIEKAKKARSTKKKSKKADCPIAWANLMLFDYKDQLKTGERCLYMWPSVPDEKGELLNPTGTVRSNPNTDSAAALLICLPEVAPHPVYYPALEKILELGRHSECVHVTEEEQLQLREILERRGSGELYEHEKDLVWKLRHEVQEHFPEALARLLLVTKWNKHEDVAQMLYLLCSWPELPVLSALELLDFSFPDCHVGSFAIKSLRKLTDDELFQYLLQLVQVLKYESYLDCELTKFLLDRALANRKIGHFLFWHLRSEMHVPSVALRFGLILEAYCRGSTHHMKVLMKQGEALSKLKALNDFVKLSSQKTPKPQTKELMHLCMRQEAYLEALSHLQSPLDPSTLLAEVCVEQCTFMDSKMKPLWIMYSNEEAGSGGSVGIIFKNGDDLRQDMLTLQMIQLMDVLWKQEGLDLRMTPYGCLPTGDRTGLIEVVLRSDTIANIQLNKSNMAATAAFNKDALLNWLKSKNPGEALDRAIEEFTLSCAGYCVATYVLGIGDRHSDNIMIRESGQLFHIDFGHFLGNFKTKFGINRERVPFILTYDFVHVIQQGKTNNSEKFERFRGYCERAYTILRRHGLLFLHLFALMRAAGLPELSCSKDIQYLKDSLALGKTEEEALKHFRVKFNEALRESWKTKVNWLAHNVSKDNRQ
Chain of PI3K-δ (p110δ/p85α) (P27986 whole entry partner, species assumed): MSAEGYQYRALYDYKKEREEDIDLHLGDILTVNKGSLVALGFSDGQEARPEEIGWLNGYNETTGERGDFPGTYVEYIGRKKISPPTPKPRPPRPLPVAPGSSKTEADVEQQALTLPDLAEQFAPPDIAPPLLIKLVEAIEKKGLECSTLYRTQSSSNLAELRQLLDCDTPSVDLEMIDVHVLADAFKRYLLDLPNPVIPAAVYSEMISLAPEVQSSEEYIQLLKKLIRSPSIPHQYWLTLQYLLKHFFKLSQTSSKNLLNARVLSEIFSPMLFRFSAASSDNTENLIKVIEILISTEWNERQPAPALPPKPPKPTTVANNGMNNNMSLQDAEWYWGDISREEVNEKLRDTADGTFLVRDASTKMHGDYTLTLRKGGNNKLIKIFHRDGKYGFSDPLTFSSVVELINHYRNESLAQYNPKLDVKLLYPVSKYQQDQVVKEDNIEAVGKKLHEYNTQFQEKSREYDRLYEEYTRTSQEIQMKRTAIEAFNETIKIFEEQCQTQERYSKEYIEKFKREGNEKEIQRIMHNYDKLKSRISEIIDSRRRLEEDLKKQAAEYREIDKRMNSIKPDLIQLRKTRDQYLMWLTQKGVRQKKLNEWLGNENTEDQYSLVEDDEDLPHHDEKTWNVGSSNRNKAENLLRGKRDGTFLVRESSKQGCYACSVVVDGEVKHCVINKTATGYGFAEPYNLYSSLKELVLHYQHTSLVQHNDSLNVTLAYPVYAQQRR

Compound	pIC50 (PI3K-δ (p110δ/p85α))	pIC50 (PI3K-γ (p110γ))	pIC50 (PI3K-β)	pIC50 [1]	pIC50 [2]	inhibition at 1 µM (PI3K-γ (p110γ))	inhibition at 1 µM (PI3K-β)
C[C@H](Nc1ncnc(N)c1C#N)c1cc2ncc(Cl)n2nc1-c1cccc(F)c1F [Compound 36]	8.52	6.61	5.88	9.00	–	–	–
C[C@H](Nc1ncnc(N)c1Cl)c1cc2ncc(Cl)n2nc1-c1ccccc1 [Compound 40]	8.70	< 6.48	6.56	8.52	–	–	–
C[C@H](Nc1ncnc(N)c1C#N)c1cc2ncc(Cl)n2nc1-c1cccc(Cl)c1 [Compound 41]	8.52	6.30	5.88	7.92	7.74	–	–
C[C@H](Nc1ncnc(N)c1C#N)c1cc2ncc(Cl)n2nc1-c1ccccc1C(F)(F)F [Compound 45]	8.52	6.71	6.35	8.52	–	–	–
C[C@H](Nc1ncnc(N)c1C#N)c1cc2ncc(Cl)n2nc1-c1cccc(S(C)(=O)=O)c1 [Compound 46]	8.40	7.30	5.88	8.22	–	–	–
C[C@H](Nc1ncnc(N)c1C#N)c1cc2ncc(Cl)n2nc1-c1cccc(C(F)(F)F)c1 [Compound 48]	8.05	5.88	5.39	8.10	7.39	–	–
C[C@H](Nc1ncnc(N)c1C(N)=O)c1cc2ncc(Cl)n2nc1-c1ccccc1 [Compound 53, (S)-4-amino-6-((1-(3-chloro-6-phenylimidazo[1,2-b]pyridazin-7-yl)ethyl)amino)pyrimidine-5-carboxamide]	–	–	–	7.80	–	34.3%	30.5%
Cc1nc2cc([C@H](C)Nc3ncnc(N)c3C#N)c(-c3ccccc3)nn2c1Cl [Compound 59]	8.30	5.62	5.94	8.22	7.00	–	–
C[C@H](Nc1ncnc(N)c1C#N)c1cc2ncc(Cl)n2nc1-c1ccc2cccnc2c1 [Compound 61]	8.15	–	–	7.39	6.96	26.5%	24.4%
Cc1cccc(-c2nn3c(Cl)cnc3cc2[C@H](C)Nc2ncnc(N)c2C#N)c1 [Compound 62]	8.70	6.61	5.91	9.00	7.82	–	–
C[C@H](Nc1ncnc(N)c1C#N)c1cc2ncc(Cl)n2nc1-c1cccc(C#N)c1 [Compound 65]	8.70	6.21	5.90	8.70	7.85	–	–
C[C@H](Nc1ncnc(N)c1C#N)c1cc2ncc(Cl)n2nc1-c1cc(F)cc(Cl)c1 [Compound 66]	8.05	5.95	5.37	8.70	6.58	–	–
Cc1cc(F)cc(-c2nn3c(Cl)cnc3cc2[C@H](C)Nc2ncnc(N)c2C#N)c1 [Compound 67]	8.30	5.94	5.45	8.52	8.00	–	–
C[C@H](Nc1ncnc(N)c1C#N)c1cc2ncc(Cl)n2nc1-c1ccccc1S(C)(=O)=O [Compound 68]	8.70	6.46	6.02	9.00	8.70	–	–
C[C@H](Nc1ncnc(N)c1C#N)c1cc2ncc(Cl)n2nc1-c1ccc2scnc2c1 [Compound 74]	8.05	–	–	7.64	–	40.8%	49.4%
C[C@H](Nc1ncnc(N)c1C#N)c1cc2ncc(Cl)n2nc1-c1cccnc1 [Compound 77]	8.70	6.36	6.62	8.52	–	–	–
Cc1noc(-c2c(N)ncnc2N[C@@H](C)c2cc3ncc(Cl)n3nc2-c2ccccc2)n1 [Compound 82, (S)—N^4-(1-(3-chloro-6-phenylimidazo[1,2-b]pyridazin-7-yl)ethyl)-5-(3-methyl-1,2,4-oxadiazol-5-yl)pyrimidine-4,6-diamine]	7.89	6.69	–	–	–	–	55.2%
